Results as given in patent publication US20100029675A1, “Pyrimidine-2, 4-diamine JAK2 Kinase inhibiting anti-inflammation use” (priority 2008, published 2010).

Key:
[1] = tested on: JAK2-dependent phosphorylation of STAT3 (phospho-Y705) in AGS gastric cancer cell line; assay: Western blot of STAT3 phosphorylation in AGS cells; assay type: cell-based; conditions: 24 hours, 5-10 uM, densitometry
Procedure: (§1) In order to detect specific inhibition of JAK2 enzyme in cell culture, Western blot assays may also be performed. For this, cells which have been treated with a potential JAK2 inhibitor are lysed with a buffer specific for the isolation and preservation of proteins (1% Nonidet P-40, 120 mM NaCl, 30 mM Tris pH 7.4, 1:100 Protease Inhibitor Cocktail III [Calbiochem/EMD Biosciences], 1:100 Phosphatase Inhibitor Cocktail 1 [Sigma-Aldrich, Saint Louis, Mo.], 1:100 Phosphatase Inhibitor Cocktail 2 [Sigma-Aldrich, Saint Louis, Mo.]). The protein concentration in these lysates is then quantified using the BCA Protein Assay Kit (Pierce). Known amounts of protein, e.g. 50 ug, are loaded onto 10% SDS-polyacrylamide gels and are subjected to reducing, denaturing SDS-PAGE. […]
(§2) In this example, Compound 1-4 is shown to reduce the JAK2-dependent phosphorylation of STAT3 and STAT5 in the AGS gastric cancer cell line. […] Following incubation, cells were lysed and total protein isolated and quantified. […] Densitometry analysis was performed in order to quantify the amount of STAT3 and STAT5 phosphorylation in these treated cells. Phospho-STAT3 and phospho-STAT5 were compared to total STAT3 and STAT5 and the proportion of STAT phosphorylation relative to untreated controls was determined.

[2] = tested on: JAK2-dependent phosphorylation of STAT5 (phospho-Y694) in AGS gastric cancer cell line; assay: Western blot of STAT5 phosphorylation in AGS cells; assay type: cell-based; conditions: 24 hours, 5-10 uM, densitometry
Procedure: as §1, §2

## CN1CCN(c2ccc(Nc3nccc(Nc4ccc(F)c(Cl)c4)n3)cc2)CC1 [Compound 1-4, N4-(3-chloro-4-fluorophenyl)-N2-(4-(4-methylpiperazin-1-yl)phenyl)pyrimidine-2,4-diamine]
[1]
  STAT3 phosphorylation relative to untreated controls: reduce
[2]
  STAT5 phosphorylation relative to untreated controls: reduce
